Test results taken from paper PMC10348910, “Epigenetic reprogramming of cell cycle genes by ACK1 promotes breast cancer resistance to CDK4/6 inhibitor” (Oncogene, 2023).

Key:
MCF7 xenografts = experiment: MCF7 xenograft in mammary fat pad; type: in vivo, female SCID mice; conditions: orally 36 mg/Kg or subcutaneously 24 mg/Kg
Method: Fig. 6 (R)-9b inhibits breast cancer xenograft tumor growth in vivo. A 2 × 10^6 Cal-148 cells were injected in the 4th inguinal mammary fat pad of female SCID mice. Once the tumors were palpable, the mice were treated subcutaneously with either vehicle (Captisol; n = 8) or (R)-9b at 24 mg/Kg (n = 8) five times a week, for 4 weeks. The tumor volumes were measured twice a week. B, C The tumors were harvested and photographed, and the weights were recorded. D RNA was prepared from the tumors, followed by qRT-PCR to determine the levels of CCNB1, CCNB2 and CDC20 mRNA (n = 3 each). E and F 2 × 10^6 MCF7 cells were injected in the 4th inguinal mammary fat pad of female SCID mice with continuous supplementation of estrogen. Once the tumors were palpable, the mice were treated with vehicle (Captisol; n = 7), (R)-9b at 24 mg/Kg subcutaneously (n = 8), or orally with (R)-9b at 36 mg/Kg (n = 8), five times a week, for 4 weeks. The tumors were harvested, their weights were recorded and photographed. G Tumor lysates were subjected to immunoblotting using pACK1, CCNB1, CCNB2, CDC20 and Actin antibodies (n = 3 each). H RNA was prepared from the tumors, followed by qRT-PCR to determine the levels of CCNB1, CCNB2 and CDC20 mRNA (n = 3 each). Data are represented as the mean ± SEM. *p < 0.05; **p < 0.01; ***p < 0.001. For (C) and (D), unpaired two-tailed Student’s t test, and for (E) and (H), one way ANOVA was performed.
In addition, effect of (R)-9b was assessed in ER^+/PR^+ breast cancer xenografts. Briefly, MCF7 cells were implanted in mammary fat pad of female SCID mice. Once the tumors were palpable, the mice were treated orally (36 mg/Kg) or injected subcutaneously with 24 mg/Kg of (R)-9b for 4 weeks. […] Further, RNA was isolated from the xenograft tumors and CDC20, CCNB1 and CCNB2 mRNA levels were examined.
All animal experiments were performed using the standards for humane care in accordance with the NIH Guide for the Care and Use of Laboratory Animals. […] Tumor volumes were measured twice a week using calipers. […]

CXCR4 mRNA = experiment: qRT-PCR of CXCR4 in MDA-MB-231 cells; type: cell-based
Method: Fig. 7 ACK1 inhibitor overcomes palbociclib-resistant breast cancer growth and metastasis. A 3 × 10^6 MDA-MB-468 cells were injected in the 4th inguinal mammary fat pad of female SCID mice. Once the tumors were palpable, the mice were treated with either vehicle (Captisol; n = 7), Palbociclib at 80 mg/kg (n = 6), or (R)-9b at 36 mg/Kg (n = 6) orally. In addition, mice were injected with (R)-9b at 24 mg/Kg (n = 7) subcutaneously. Mice were treated five times a week, for 22 days. B, C The tumors were harvested and photographed, and the weights were recorded. D Vehicle or (R)-9b treated breast cancer cells were subjected to ChIP using pY88-H4 antibody, followed by qPCR for CXCR4 gene. E CXCR4 mRNA transcript levels in vehicle or (R)-9b treated MDA-MB-231 cells. 18S rRNA was used as housekeeping gene. F MDA-MB-231 cells were transfected with ACK1 or scrambled siRNA, followed by qRT-PCR to determine CXCR4 mRNA transcript levels. […] H Graphical quantitation of lung metastatic deposit. […] The metastases were assessed using IVIS. […] For (A, C–F, I), p values were calculated using unpaired two-tailed Student’s t test.
Real-time quantitative PCR analyses were performed using the ABI PRISM 7900HT Sequence Detection System (Applied Biosystems) as described earlier. […] Data were analyzed using SDS software version 2.2.2 and exported into an Excel spreadsheet. […]

MDA-MB-468 xenografts = experiment: MDA-MB-468 xenograft in mammary fat pad; type: in vivo, female SCID mice
Method: To validate these findings in breast tumors, MDA-MB-468 cells were injected in female SCID mice. Once palpable tumors were formed (5 weeks), mice were treated with vehicle (6% captisol), palbociclib (80 mg/Kg of body weight), (R)-9b (36 mg/Kg of body weight) by oral route, or (R)-9b (24 mg/Kg of body weight) by subcutaneous injection, five times a week.
Fig. 7 ACK1 inhibitor overcomes palbociclib-resistant breast cancer growth and metastasis. A 3 × 10^6 MDA-MB-468 cells were injected in the 4th inguinal mammary fat pad of female SCID mice. Once the tumors were palpable, the mice were treated with either vehicle (Captisol; n = 7), Palbociclib at 80 mg/kg (n = 6), or (R)-9b at 36 mg/Kg (n = 6) orally. In addition, mice were injected with (R)-9b at 24 mg/Kg (n = 7) subcutaneously. Mice were treated five times a week, for 22 days. B, C The tumors were harvested and photographed, and the weights were recorded. D Vehicle or (R)-9b treated breast cancer cells were subjected to ChIP using pY88-H4 antibody, followed by qPCR for CXCR4 gene. E CXCR4 mRNA transcript levels in vehicle or (R)-9b treated MDA-MB-231 cells. 18S rRNA was used as housekeeping gene. F MDA-MB-231 cells were transfected with ACK1 or scrambled siRNA, followed by qRT-PCR to determine CXCR4 mRNA transcript levels. G Representative lung metastatic deposits of MDA-MB-231 cells injected via the tail veins in female SCID mice, treated with either vehicle or 24 mg/Kg (R)-9b orally. H Graphical quantitation of lung metastatic deposit. I and J 5 × 10^5 luciferase expressing 4T1 cells were injected into 4th inguinal mammary fat pad of female BALB/c mice. Once the tumors were palpable, mice were treated with either vehicle or (R)-9b at 24 mg/Kg (n = 3, each) subcutaneously for 2 weeks, five times a week. The metastases were assessed using IVIS. Data are represented as the mean ± SEM. *p < 0.05; **p < 0.01; ***p < 0.001. For (A, C–F, I), p values were calculated using unpaired two-tailed Student’s t test.
All animal experiments were performed using the standards for humane care in accordance with the NIH Guide for the Care and Use of Laboratory Animals. Mice were obtained from Charles River Laboratories and experiments were performed according to IACUC protocols (IACUC # 20180259) approved in writing by Washington University in St. Louis Department of Comparative Medicine (DCM). 1.5 × 10^6 Cal-148 or MCF7, or 3 × 10^6 MDA-MB-468 cells were suspended in 200 µl of PBS with 50% matrigel (BD Biosciences) and were implanted subcutaneously into the mammary fat pad (between fourth and fifth inguinal) of female SCID C.B17 mice (n = 8 per group). Once the tumors were palpable (about 4–5 weeks), mice were randomly chosen for subcutaneous injection (Cal-148 and MCF7; 24 mg/Kg body weight) or given oral gavage with (R)-9b (MCF7; 36 mg/Kg body weight) resuspended in 6% Captisol (or 6% Captisol in PBS as vehicle), five times a week, for 4–5 weeks. Tumor volumes were measured twice a week using calipers. At the end of the study, all mice were humanely euthanized, tumors extracted and weighed.

## CN1CCN(c2ccc(Nc3ncc(Cl)c(NC[C@H]4CCCO4)n3)cc2)CC1 [(R)-9b]
MCF7 xenografts
  CDC20, CCNB1 and CCNB2 mRNA levels in tumors: significant reduction
  CDC20, CCNB1 and CCNB2 protein levels in tumor lysates: marked decrease
MCF7 xenografts; 4 weeks
  xenograft tumor growth: significant loss of tumor growth
CXCR4 mRNA
  CXCR4 transcription: inhibited CXCR4 transcription
MDA-MB-468 xenografts; (R)-9b 36 mg/Kg oral or 24 mg/Kg subcutaneous, end of experiment
  tumor weights: significant reduction in tumor weights
MDA-MB-468 xenografts; palbociclib 80 mg/Kg oral, (R)-9b 36 mg/Kg oral or 24 mg/Kg subcutaneous, five times a week, 3 weeks
  xenograft tumor growth: compromised tumors growth
MDA-MB-468 xenografts; palbociclib 80 mg/Kg, (R)-9b 36 mg/Kg oral or 24 mg/Kg subcutaneous
  weights of the mice: did not exhibit significant loss of weight
MDA-MB-468 xenografts; palbociclib 80 mg/Kg, (R)-9b oral and subcutaneous
  histology (H&E) of heart, spleen, kidneys and livers: did not reveal histological abnormalities
